Assay results taken from paper PMC4965013, “Open Source Drug Discovery with the Malaria Box Compound Collection for Neglected Diseases and Beyond” (PLoS Pathogens, 2016).
Read-outs that look alike come from different tables or passages of the source.

Legend:
[1] = system: P. falciparum 3D7 trophozoites; experiment: Metabolomic fingerprint profiling LC-MS; format: cell-based, Plasmodium falciparum; design: UDP-D-glucose / ADP-D-glucose: unit not given here
[2] = system: Atg8-Atg3; design: method as in ref [38] (a number printed in a supplementary file, which may have a reference list of its own: not looked up in the article's list); conditions: ref [38]; cited from earlier work
[3] = system: P. falciparum; experiment: EC50 listed in S2 Table Metabolomics (used to set the concentration tested); format: cell-based; conditions: Plasmodium falciparum; EC50 used for Factor_XEC50 in metabolomics; read-out: EC50_nM
[4] = system: Saccharomyces cerevisiae strain WC081; experiment: Yeast disc diffusion in combination with artemisinin; format: cell-based; conditions: 10 µL of 1 mM on disc, 0.2 µM artemisinin, read-out: larger zone size with artemisinin (SCG+artemisinin minus SCG)
Description: Yeast screening for enhanced drug effects in combination with artemisinin, Jensen group (data presented first in this paper). […] Yeast (S. cerevisiae) was used as a proxy for P. falciparum, because the killing of S. cerevisiae and P. falciparum appear to have similarities. Saccharomyces cerevisiae strain WC081 (Mat a, leu2∆0, lys2∆0, ura3∆0, his3∆1, pdr1∆::HIS3, pdr3∆::kanMX4) was utilized and was originally derived from strain BY4742. Regulators of Multi-drug resistance transporters have been deleted from this strain to enhance the toxicity of compounds. Assay utilized the disc diffusion method with the observance of a clear zone indicating inhibition of growth. Synthetic complete medium containing 3% glycerol as a carbon source (SCG) was used in each assay. 10 µL of each compound at 1 mM was added to a paper disc which was placed on SCG and SCG^+artemisinin (0.2 µM) plates seeded with 10e6 yeast cells. Plates were incubated at 30 °C for 5 days and clear zones were measured. Compounds that produced a larger clear zone in the presence of artemisinin were considered to have an additive interaction with artemisinin. Results are reported as diameter of clear zone on SCG^+artemisinin plates - diameter of clear zone on SCG plates without artemisinin.

[5] = system: P. falciparum FCR3; experiment: FCR3 SYBR Green I assay Horii; format: cell-based; conditions: Plasmodium falciparum, FCR3, 72 h; read-out: P. falciparum FCR3 asexual blood stage IC50 Horii
Experimental: Column T: Horii group (data presented first in this paper). IC50 against asexual blood stage P. falciparum FCR3. Methods: For measurement of anti-Plasmodium activities, P. falciparum FCR3 strain was cultured in the RPMI 1640 medium supplemented with 10% human type A serum from in-house volunteers at 37°C, 5% O2 and 5% CO2 (0.5% parasitemia and 2% hematocrit) for 72 h in the presence of the compounds (DMSO final concentration, 0.25%). The growth inhibition of P. falciparum was determined using a SYBR Green I assay. Lysis buffer (20 mM Tris (pH 7.5), 5 mM EDTA, 0.008% (w/v) saponin and 0.08% (v/v) Triton X-100) containing SYBR Green I was added to each well and incubated at room temperature and dark condition for 1-5 hours. After the incubation, amounts of parasite DNA were measured as fluorescence at 485 nm of excitation and 530 nm of emission. An unpublished antimalarial compound was used as positive control in the assay.

[6] = system: P. falciparum NF54Pfs16 gametocytes stage IV-V; conditions: cited from earlier work
[7] = system: P. falciparum HB3; experiment: Stage-specificity / mitochondrial integrity image assay Ayong; format: cell-based; conditions: 10µM
[8] = system: P. falciparum NF54Pfs16 gametocytes stage I-III; conditions: ref [61]; read-out: gametocyte early stage (I-III) luciferase EC50; cited from earlier work
[9] = system: P. falciparum NF54 GFP-Pfs16 gametocytes stage IV-V; conditions: ref [64]; read-out: gametocyte late stage (IV-V) GFP-MTR EC50; cited from earlier work
[10] = system: P. falciparum NF54 GFP-Pfs16 gametocytes stage I-III; conditions: ref [64]; read-out: gametocyte early stage (I-III) GFP-MTR EC50; cited from earlier work
[11] = system: P. falciparum 3D7, HB3, Dd2, W2, K1, FCR3; experiment: Asexual EC50 image assay, six strains, Ayong; format: cell-based; conditions: Plasmodium falciparum
[12] = system: P. falciparum 3D7 or K1; experiment: Asexual Blood Stage Imaging Assay (DAPI) V. Avery; format: cell-based; conditions: Plasmodium falciparum
[13] = system: P. falciparum 3D7; experiment: [3H]-hypoxanthine growth inhibition, modified HCO3- or O2; format: cell-based; conditions: for IC50: Plasmodium falciparum
[14] = system: P. falciparum Dd2; experiment: Malaria Sybr Green I Fluorescence assay Dd2 Horrocks; format: cell-based; conditions: Plasmodium falciparum, DD2, 48 h; read-out: P. falciparum Dd2 asexual blood stage EC50 Horrocks
Experimental: Column S: Horrocks group (data presented first in this paper). Asexual Dd2 inhibition of growth (IC50s): IC50 for the Dd2 clone of Plasmodium falciparum were determined using the Malaria Sybr Green I Fluorescence assay. Drug assays were initiated using a 2% trophozoite stage parasitaemia and 2% hematocrit and fluorescence measured after 48 h as fully described in Hasenkamp et al.[53]. Log dose-response curves were plotted in GraphPad Prism (v5.0). The controls for Dd2 using our 48hr Sybr Green I assay were (rounded to nearest nM): Chloroquine 209nM, Mefloquine 11nM, Quinine 246nM, Dihydroartemisinin 4nM, Artemether 10nM, Atovaquone 3nM.

[15] = system: T. b. brucei Squib 427; experiment: T. b. brucei growth Maes; format: cell-based, Trypanosoma brucei brucei; conditions: non-toxic, positive in all T. brucei screens
[16] = metabolite level change after treatment
[17] = read-out: P. falciparum 3D7 asexual blood stage EC50 (Image) V. Avery
[18] = read-out: P. falciparum K1 asexual blood stage EC50 (Image) V. Avery

CSc1ccccc1C(=O)Nc1nc(-c2ccccn2)cs1 [MMV001246]
Acetyllysine ([1]; S2 Table Metabolomics, metabolite Acetyllysine): 0.4532 | N-acetyl-L-ornithine ([1]; S2 Table Metabolomics, metabolite N-acetyl-L-ornithine): 0.4087 | N-carbamoyl-L-aspartate ([1]; S2 Table Metabolomics, metabolite N-carbamoyl-L-aspartate): 0.8167 | NADPH ([1]; S2 Table Metabolomics, metabolite NADPH): -0.6152 | dAMP ([1]; S2 Table Metabolomics, metabolite dAMP): 0.5623 | dCMP ([1]; S2 Table Metabolomics, metabolite dCMP): 1.316 | dTDP ([1]; S2 Table Metabolomics, metabolite dTDP): 1.003 | dTMP ([1]; S2 Table Metabolomics, metabolite dTMP): 1.155 | dTTP ([1]; S2 Table Metabolomics, metabolite dTTP): 0.605 | dihydroorotate ([1]; S2 Table Metabolomics, metabolite dihydroorotate): 0.8484 | orotate ([1]; S2 Table Metabolomics, metabolite orotate): -0.04882 | DLH ([1]; S2 Table Metabolomics, peptide DLH): -0.1638 | DLS/SDL/SID ([1]; S2 Table Metabolomics, peptide DLS/SDL/SID): -0.1191 | PD ([1]; S2 Table Metabolomics, peptide PD): 1.085 | PEE ([1]; S2 Table Metabolomics, peptide PEE): 0.2734 | PVNF ([1]; S2 Table Metabolomics, peptide PVNF): -0.2587 | 3-phosphoglycerate ([1]; metabolite 3-phosphoglycerate, S2 Table Metabolomics): -0.3067 | ADP-D-glucose ([1]; metabolite ADP-D-glucose, S2 Table Metabolomics): 0.2637 | ATP ([1]; metabolite ATP, S2 Table Metabolomics): -0.316 | CDP ([1]; metabolite CDP, S2 Table Metabolomics, change in metabolite level after compound treatment): 1.161 | D-sedoheptulose-1/7-phosphate ([1]; metabolite D-sedoheptulose-1/7-phosphate, S2 Table Metabolomics, change in metabolite level after compound treatment): 0.9582 | FAD ([1]; metabolite FAD, S2 Table Metabolomics): -0.06449 | GMP ([1]; metabolite GMP, S2 Table Metabolomics, change in metabolite level after compound treatment): -0.2602 | NAD+ ([1]; metabolite NAD+, S2 Table Metabolomics): 0.05063 | NADP+ ([1]; metabolite NADP+, S2 Table Metabolomics): 0.1259 | Octoluse Bisphosphate ([1]; metabolite Octoluse Bisphosphate, S2 Table Metabolomics, change in metabolite level after compound treatment): -0.02993 | Pyroglutamic acid ([1]; metabolite Pyroglutamic acid, S2 Table Metabolomics): -0.6363 | UDP-D-glucose ([1]; metabolite UDP-D-glucose, S2 Table Metabolomics): 0.1597 | UDP-D-glucuronate ([1]; metabolite UDP-D-glucuronate, S2 Table Metabolomics): 0.09079 | UDP-N-acetyl-glucosamine ([1]; metabolite UDP-N-acetyl-glucosamine, S2 Table Metabolomics): 0.2113 | UDP ([1]; metabolite UDP, S2 Table Metabolomics, change in metabolite level after compound treatment): 1.27 | UMP ([1]; metabolite UMP, S2 Table Metabolomics, change in metabolite level after compound treatment): -0.2249 | UTP ([1]; metabolite UTP, S2 Table Metabolomics, change in metabolite level after compound treatment): 0.2071 | a-ketoglutarate ([1]; metabolite a-ketoglutarate, S2 Table Metabolomics): -0.3343 | citrate/isocitrate ([1]; metabolite citrate/isocitrate, S2 Table Metabolomics, change in metabolite level after compound treatment): 0.6139 | cytidine ([1]; metabolite cytidine, S2 Table Metabolomics): -0.1132 | dATP ([1]; metabolite dATP, S2 Table Metabolomics): -0.2342 | dGMP/AMP ([1]; metabolite dGMP/AMP, S2 Table Metabolomics, change in metabolite level after compound treatment): 0.5523 | fumarate ([1]; metabolite fumarate, S2 Table Metabolomics, change in metabolite level after compound treatment): 0.07419 | glucose-1/6-phosphate ([1]; metabolite glucose-1/6-phosphate, S2 Table Metabolomics, change in metabolite level after compound treatment): 0.3611 | glycerate ([1]; metabolite glycerate, S2 Table Metabolomics, change in metabolite level after compound treatment): -0.4138 | guanine ([1]; metabolite guanine, S2 Table Metabolomics, change in metabolite level after compound treatment): 0.2842 | guanosine ([1]; metabolite guanosine, S2 Table Metabolomics, change in metabolite level after compound treatment): 0.03562 | hypoxanthine ([1]; metabolite hypoxanthine, S2 Table Metabolomics): -0.2148 | indole ([1]; metabolite indole, S2 Table Metabolomics): -0.09781 | inosine ([1]; metabolite inosine, S2 Table Metabolomics, change in metabolite level after compound treatment): -0.005486 | 2_3-Diphosphoglyceric acid [1, 16]: 0.509 | 4-phosphopantothenate [1, 16]: 0.08862 | 6-phospho-D-gluconate [1, 16]: 0.2643 | FMN [1, 16]: 0.1616 | IMP [1, 16]: 0.3566 | Pyrophosphate [1, 16]: 0.4487 | Sedoheptoluse bisphosphate [1, 16]: -0.09548 | cyclic-AMP [1, 16]: -0.2042 | glutathione disulfide [1, 16]: 0.1188 | lactate [1, 16]: -0.259 | myo-inositol [1, 16]: -0.2589 | nicotinate ([1]; metabolite nicotinate, S2 Table Metabolomics): -0.09283 | ornithine ([1]; metabolite ornithine, S2 Table Metabolomics): 0.2998 | phosphoenolpyruvate ([1]; metabolite phosphoenolpyruvate, S2 Table Metabolomics): -0.3081 | pyruvate ([1]; metabolite pyruvate, S2 Table Metabolomics, change in metabolite level after compound treatment): -0.1972 | ribose-phosphate ([1]; metabolite ribose-phosphate, S2 Table Metabolomics): -0.4595 | sarcosine/alanine ([1]; metabolite sarcosine/alanine, S2 Table Metabolomics, change in metabolite level after compound treatment): 0.1583 | sn-glycerol-3-phosphate ([1]; metabolite sn-glycerol-3-phosphate, S2 Table Metabolomics): -0.08199 | succinate/methylmalonic acid ([1]; metabolite succinate/methylmalonic acid, S2 Table Metabolomics, change in metabolite level after compound treatment): 0.009107 | uridine ([1]; metabolite uridine, S2 Table Metabolomics, change in metabolite level after compound treatment): 0.08525 | xanthosine ([1]; metabolite xanthosine, S2 Table Metabolomics, change in metabolite level after compound treatment): -0.2265 | PPI inhibitors of Atg8-Atg3 interaction [2]: PPI inhibitors | EC50 [3]: 206 nM | zone of inhibition at 1000 µM [4]: 3 mm

C[C@@H]1CC[C@H]2[C@@H](C)C(=O)O[C@@H]3O[C@@]4(C)CC[C@@H]1[C@]32OO4 [Artemisinin, reference compound]
IC50 [5]: 47 nM | EC50 ([6]; ref [62], read-out: gametocyte late stage (IV-V) luciferase EC50): 26 nM | Effects on asexual life cycle progression (treatment at ER, LR, T, S; merozoites; mitochondrial integrity) [7]: LR-X-S-X-o-o | EC50 [8]: 13 nM | EC50 [9]: 5 nM | EC50 [10]: 1 nM | EC50 ([11]; read-out: P. falciparum 3D7 asexual blood stage EC50 (Image) Ayong): 11.7 ± 1.4 nM | EC50 ([11]; read-out: P. falciparum Dd2 asexual blood stage EC50 (Image) Ayong): 5.3 ± 1.2 nM | EC50 ([11]; read-out: P. falciparum FCR3 asexual blood stage EC50 (Image) Ayong): 5 ± 0.4 nM | EC50 ([11]; read-out: P. falciparum HB3 asexual blood stage EC50 (Image) Ayong): 8.6 ± 1.2 nM | EC50 ([11]; read-out: P. falciparum K1 asexual blood stage EC50 (Image) Ayong): 3.5 ± 0.4 nM | EC50 ([11]; read-out: P. falciparum W2 asexual blood stage EC50 (Image) Ayong): 5.7 ± 0.5 nM | EC50 [12, 17]: 1 nM | EC50 [12, 18]: 1 nM

CCN(CC)CCCC(C)Nc1ccnc2cc(Cl)ccc12 (centres unmarked) [Chloroquine, reference compound]
fold change (IC50normal/ IC50hypoxia) [13]: 1.6 | fold change (IC50reduced/IC50normal) [13]: 2.3 | IC50 ([13]; 3D7, read-out: P. falciparum 3D7 IC50 1% O2, 1% O2 hypoxia): 7 nM | IC50 ([13]; 3D7, read-out: P. falciparum 3D7 IC50 5% O2): 11 nM | IC50 ([13]; 3D7, read-out: P. falciparum 3D7 IC50 HCO3- (2g/L), standard media): 16 nM | IC50 ([13]; 3D7, HCO3- reduced media, read-out: P. falciparum 3D7 IC50 HCO3- reduced): 36 nM | IC50 [5]: 125 nM | IC50 ([6]; ref [69], read-out: late stage gametocyte luciferase, no inhibition up to): > 10000 nM | Effects on asexual life cycle progression (treatment at ER, LR, T, S; merozoites; mitochondrial integrity) [7]: LR-X-S-o-o-o | EC50 [14]: 209 nM | EC50 [8]: 77 nM | EC50 [12, 17]: 3 nM | EC50 [12, 18]: 199 nM

CN(C)CCCNCc1ccc(-c2ccc(F)c(Cl)c2)o1 [MMV020505]
Selectivity Index T. brucei screens [15]: > 10
